Structures are written as SMILES.

The subject of assay [1] is P450aluC09. The experiment in a line: Whole-cell biocatalysis (hydroxylation) by recombinant E. coli expressing P450aluC09 with redox partners. The assay is classed as cell-based, Amycolatopsis lurida.
Assay [2] has as its system P450aluC09 fused in-frame with the reductase domain of P450BM3. Description: Whole-cell biocatalysis by E. coli expressing P450aluC09 fused with the reductase domain of P450BM3. In kind it is cell-based, Amycolatopsis lurida / Bacillus megaterium. Conditions: pET21a-AluC09_BM3, E. coli BL21 Star (DE3) pLysS. The procedure: (§1) After four hours of incubation at 27° C. and 200 rpm, 2.5 mL of induced culture was dosed with 10 μL of either bosentan or diclofenac (25 mg/mL each) in a 24-well block (Enzyscreen). The whole-cell biocatalysis reaction was allowed to further incubate for 24 hours at 30° C. and 300 rpm. The reaction was stopped with an equal amount of acetonitrile and conversion assessed by UPLC-MS analysis in a similar manner to that described in Example 7.
The P450aluC09 was engineered to fuse in-frame to the reductase domain of P450BM3 from Bacillus megaterium in a similar manner described in Scheps et al. Microb Biotechnol. 2013; 6(6):694-707.
Whole-cell hydroxylating activity of E. coli BL21 Star (DE3) pLysS with either pQR368bb-aluC09-aluF03 or pET21a-AluC09_BM3 plasmid were compared against the substrates bosentan and diclofenac in a similar manner described in Example 10.

In assay [3] the test system is P450aluC09. Description: Whole-cell biocatalysis (hydroxylation) by recombinant E. coli expressing P450aluC09 with redox partners. In kind it is cell-based, Amycolatopsis lurida. On the procedure: The recombinant expression strains E. coli BL21 Star (DE3) pLysS with pQR368bb-aluC09-aluF03 and E. coli BL21 Star (DE3) pLysS with p3C.1-AluC09-AluF03 were cultured in Terrific Broth media as in Example 5 and gene expression was induced by adding IPTG to reach the final concentration of 1 mM. The culture was supplemented with FeSO4 and 5′-aminolevulinic acid as in Example 5.
as §1
The source holds these as a separate data set.

The subject of assay [4] is P450aluC09. The experiment in a line: Cell-free hydroxylase activity of lyophilised recombinant P450aluC09-ferredoxinaluF03-ferredoxin reductaseSCF15A, conversion by UPLC-MS. The assay is classed as biochemical, Amycolatopsis lurida. The conditions noted are these: 16-20 hours; for hydroxylase activity (conversion to hydroxylated product): 0.1 mg/ml substrate. The procedure: Lyophilised material of recombinant P450aluC09, ferredoxinaluF03 and ferredoxin reductaseSCF15A was made as described in examples 5 and 6 and suspended in water to a final concentration of 2.9 μM of P450aluC09 and 919 UN of ferredoxin reductaseSCF15A. […] 50 mM potassium phosphate pH 7.4, 5 mM MgCl2, 0.1 mg/ml substrate compound such as bosentan (CarboSynth Ltd, UK), buparvaquone (MedChemtronica, Sweden), BIRB796 (Stratech Scientific Limited, UK), diclofenac (Sigma-Aldrich, UK), epothilone B (LC Laboratories, USA) or ritonavir (TCI, UK), tivantinib (MedChemtronica, Sweden), 2.4 μM of P450AluC09, 767 UN of ferredoxin reductaseSCF15A, 5 mM G6P, 1 mM NADP, 2 UN/ml G6PDH in a final volume of 100 μL. After 16-20 hours, reactions were extracted with an equal volume of acetonitrile, centrifuged to remove precipitated proteins and conversion assessed by UPLC-MS analysis.
The method in Example 7 was followed except for the buffer exchange section. Four different buffers were chosen: a) 50 mM Acetate pH 5, 100 mM NaCl, 5 mM MgCl2; b) 50 mM potassium phosphate pH7.5, 5 mM MgCl2; c) 50 mM Tris pH 8, 100 mM NaCl, 5 mM MgCl2; d) 50 mM Piperidine pH11, 100 mM NaCl, 5 mM MgCl2. For each buffer condition 1.5 ml of resuspended lyophilised crude extract was exchanged using Vivaspin 20K cut off by performing 3 cycles of concentration and then dilution of the material with the new buffer. Exchanging in 50 mM potassium phosphate pH7.5, 5 mM MgCl2, the usual buffer for preparing and assessment of the enzyme preparations, provided the control for the robustness of the material during the buffer exchange process. […] Of particular note is the activity of this recombinant enzyme at such elevated pH values e.g., pH value of 11. […] Other advantages of catalysis at higher pH are the ability to directly utilise the product from a prior step resulting in such products, such as chemical synthesis, base-catalysed hydrolysis of a feedstock, or reaction product from another enzyme where increasing pH has been used to stop that reaction

Setting [5] is: Ferredoxinfd1 from S. griseus 11796 (p3C-AluC09), E. coli BL21 Star (DE3) pLysS.
The mark [6] stands for this setting: Kanamycin resistant strain (pHD02-AluC09-AluF03), E. coli BL21 Star (DE3) pLysS.
The mark [7] stands for this setting: host E. coli BL21 (DE3) pLysS, pQR368bb-aluC09-aluF03.
[8] abbreviates: host E. coli BL21 (DE3), pQR368bb-aluC09-aluF03.
[9] abbreviates: host E. coli BL21 Star (DE3), pQR368bb-aluC09-aluF03.
Setting [10] is: Ampicillin resistant strain (pQR368bb-aluC09-aluF03), E. coli BL21 Star (DE3) pLysS.
Where [11] appears, read: High copy number strain (p3C.1-AluC09-AluF03), E. coli BL21 Star (DE3) pLysS, 24 hours 30° C.
Where [12] appears, read: Medium copy number strain (pQR368bb-aluC09-aluF03), E. coli BL21 Star (DE3) pLysS, 24 hours 30° C.
The mark [13] stands for this setting: Native ferredoxinaluF03 (p3C.1-AluC09-AluF03), E. coli BL21 Star (DE3) pLysS.
The mark [14] stands for this setting: ferredoxinaluF03 and ferredoxin reductaseSCF15A (pQR368bb-aluC09-aluF03), E. coli BL21 Star (DE3) pLysS, Table 7 comparison.
Setting [15] is: host E. coli BL21 Star (DE3) pLysS, pQR368bb-aluC09-aluF03.
[16] abbreviates: pH values of 7.5 and above (pH 8-11).

For `O=C(O)Cc1ccccc1Nc1c(Cl)cc(O)cc1Cl` [4′-HO-Diclofenac, 4′-hydroxydiclofenac], the “% yield of parent-derived products” value with P450aluC09 [1] (setting [5]) is reported as 11.5%; in the assay on P450aluC09 [1] (setting [6]), 6.0%; in the assay on P450aluC09 [1] (setting [7]), 11.3%; with P450aluC09 [1] (setting [8]), greater than 1%; with P450aluC09 [1] (setting [9]) it was 1.5%; in assay [2] it was 4.7%. The “% yield of parent-derived products” value in the assay with P450aluC09 [3] (setting [10]) was determined as 7.5%; with P450aluC09 [3] (setting [11]) it was 8.7%; in the assay with P450aluC09 [3] (setting [12]), 27.4%; in the assay with P450aluC09 [3] (setting [13]), 60.3%; in the assay on P450aluC09 [3] (setting [14]), 46.0%; with P450aluC09 [3] (setting [15]), 7.5%. The “hydroxylase activity (conversion to hydroxylated product)” value in the assay with P450aluC09 [4] (10° C.) turned out to be 14%; with P450aluC09 [4] (22° C.), 16%; in the assay on P450aluC09 [4] (27° C. (standard condition)) it was 21%; with P450aluC09 [4] (37° C.) it was 13%.

For `O=C(O)Cc1cc(O)ccc1Nc1c(Cl)cccc1Cl` [5-HO-Diclofenac, 5-hydroxydiclofenac], the “% yield of parent-derived products” value was 4.2% in the assay with P450aluC09 [1] (setting [5]); 48.1% in the assay with P450aluC09 [1] (setting [6]); 45.1% in the assay with P450aluC09 [1] (setting [7]); 10.3% in the assay with P450aluC09 [1] (setting [8]); 6.5% in the assay on P450aluC09 [1] (setting [9]); less than 1% in assay [2]. Also, the “% yield of parent-derived products” value is on record as 35.2% with P450aluC09 [3] (setting [10]); 23.8% in the assay on P450aluC09 [3] (setting [11]); 60.3% in the assay with P450aluC09 [3] (setting [12]); 23.8% in the assay with P450aluC09 [3] (setting [13]); 12.4% in the assay with P450aluC09 [3] (setting [14]); 35.2% with P450aluC09 [3] (setting [15]). Besides, the “hydroxylase activity (conversion to hydroxylated product)” value in the assay on P450aluC09 [4] (10° C.) worked out at 17%; in the assay with P450aluC09 [4] (22° C.), 14%; with P450aluC09 [4] (27° C. (standard condition)), 12%; in the assay on P450aluC09 [4] (37° C.), 1%.

In the case of `COc1ccccc1Oc1c(NS(=O)(=O)c2ccc(C(C)(C)CO)cc2)nc(-c2ncccn2)nc1OCCO` [HO-Bosentan], the “% yield of parent-derived products” value with P450aluC09 [1] (Ferredoxin reductasecamA and ferredoxincamB from P. putida (pHD02-AluC09-PdR-PdX), E. coli BL21 (DE3)) worked out at 21.2%; in the assay with P450aluC09 [1] (setting [5]) it was 6.3%; with P450aluC09 [1] (setting [6]), 41.6%; with P450aluC09 [1] (ferredoxinaluF03 and ferredoxin reductaseSCF15A (pHD02-AluC09-AluF03), E. coli BL21 (DE3)), 27.4%; with P450aluC09 [1] (setting [7]) it was 34.1%; in the assay with P450aluC09 [1] (setting [8]), 13.6%. Moreover, the “% yield of parent-derived products” value in the assay with P450aluC09 [1] (setting [9]) turned out to be 9.1%; in assay [2], 9.3%; in the assay on P450aluC09 [3] (setting [10]) it was 26.6%; with P450aluC09 [3] (setting [11]) it was 18.2%; with P450aluC09 [3] (setting [12]) it was 52.6%; in the assay with P450aluC09 [3] (setting [13]), 52.6%. Further, the “% yield of parent-derived products” value was found to be 29.5% in the assay with P450aluC09 [3] (setting [14]) and 26.6% in the assay with P450aluC09 [3] (setting [15]). Besides, the “hydroxylase activity (conversion to hydroxylated product)” value stood at 91% with P450aluC09 [4] (10° C.); 64% in the assay with P450aluC09 [4] (22° C.); 86% in the assay on P450aluC09 [4] (27° C. (standard condition)); 33% in the assay with P450aluC09 [4] (37° C.); 19% with P450aluC09 [4] (45° C.).

Consider `COc1ccccc1Oc1c(NS(=O)(=O)c2ccc(C(C)(C)C)cc2)nc(-c2ncccn2)nc1OCCO` [bosentan, reference compound], for which the “hydroxylase activity on the substrate at reaction pH” value in the assay with P450aluC09 [4] (pH5 (50 mM Acetate)) was “only barely detectable”; in the assay with P450aluC09 [4] (setting [16]), “remain”.

For `O=C(O)Cc1ccccc1Nc1c(Cl)cccc1Cl` [diclofenac, reference compound], the “hydroxylase activity on the substrate at reaction pH” value with P450aluC09 [4] (pH5 (50 mM Acetate)) is “only barely detectable”; in the assay with P450aluC09 [4] (setting [16]) it was “remain”.

On to `CC(C)[C@H](NC(=O)N(C)Cc1csc(C(C)(C)O)n1)C(=O)N[C@@H](Cc1ccccc1)C[C@H](O)[C@H](Cc1ccccc1)NC(=O)OCc1cncs1` [ε-HO-Ritonavir, ε-HO—N-methylisopropylthiazoloylmethyl-ritonavir], for which the “hydroxylase activity (conversion to hydroxylated product)” value is given as 36% in the assay on P450aluC09 [4] (10° C.), 36% in the assay on P450aluC09 [4] (22° C.), 34% with P450aluC09 [4] (27° C. (standard condition)) and 19% in the assay on P450aluC09 [4] (37° C.).

Source of the values: patent US11384371B2, “Hydroxylation of branched aliphatic or aromatic substrates employing the amycolatopsis lurida cytochrome P450” (HYPHA DISCOVERY LIMITED, priority 2016, dated 2022).
